Results as given in ChEMBL document CHEMBL3430912, “GSK Tres Cantos Anti-Kinetoplastid Screening (TCAKS) Data”.

Legend:
Trypanosoma cruzi [1] = assay: GSK_TCAKS: pIC50 Trypanosoma cruzi viability assay using beta-GAL activity. This assay was run at single shot at 5uM compound concentration per well. The biological reagents consisted of NIH-3T3 host cells and trypomastigotes parasitic cells; both cell types were set to a 3.3 * 10^5 cells/mL dilution in assay DMEM by means of a CASY cell counter device using a 60um capillary. 6 uL of the mixture were dispensed per well (about 1 * 10^3 host-cells and 1 * 10^3 parasites) with a Multidrop Combi dispenser. […] In all wells, the percentage of DMSO never exceeded 0.5%. Plates incubated for four days at 37C, 5% CO2. The substrate used for the assay fluorescence intensity (FLINT) readout was resorufin-beta-D-galactopiranoside (Sigma-Aldrich) at 5uM per well. It was diluted in PBS supplemented with the soft detergent Igepal (Fluka).; format: functional, organism-based, Mus musculus; conditions: Tulahuen, NIH3T3
Trypanosoma cruzi [2] = assay: (§1) GSK_TCAKS: pIC50 H2C9 Imaging: H9c2 Host Cardiomyocytes. […] Cells were then washed once with PBS before infection. T. cruzi trypomastigotes, collected at days 5 to 8 after infection from LLC-MK2 parasite infected cultures, were allowed to swim out for 4h at 37C from a centrifuged pellet (2,500 rpm/10 min/room temperature). Trypomastigotes were then collected and counted in a CASY Cell Counter. Trypomastigotes, in supplemented DMEM, were added to H9c2 cultures in a multiplicity of infection of 1 and incubated for 18 h. Cells were washed once with PBS before incubation of the infected H9c2 monolayer with trypsin (Life-Technologies) to detach cells from the flask. Cells were counted in a CASY Cell Counter using a 150 um capillary and their density set at 5 * 10^4 cells per mL in supplemented assay DMEM. Infected H9c2 were dispensed into 384-well poly-lysine coated assay plates at 50uL per well using a Multidrop Combi dispenser. After seeding them, the plates were incubated at 37C, 5% CO2 for 72h. Cultures were then fixed and stained by addition of 50 uL of a solution containing 8% formaldehyde and 4 uM DRAQ5 DNA dye (BioStatus, UK) per well. […] Five images were collected per well for reliable statistical analysis. Automated image analysis was performed with a script developed on Acapella High Content Imaging and Analysis Software (PerkinElmer). Output: Number of H9c2 Host Cardiomyocytes nuclei to determine drug-related cytotoxicity.; format: functional, organism-based, Rattus norvegicus; conditions: H9c2, 4 h
[3] = target: Sterol 14-alpha demethylase (Trypanosoma cruzi (strain CL Brener), UniProt Q7Z1V1); assay: GSK_TCAKS: pIC50 CYP51 from Trypanosoma cruzi.; format: functional
[4] = tested on: Trypanosoma brucei brucei; assay: GSK_TCAKS: pIC50 Trypanosoma brucei viability assay using fluorescence intensity. Assay plates (1536-well) were prepared by dispensing 25nL of compound solution per well using an Echo acoustic dispenser (Labcyte).; format: functional, organism-based; conditions: Lister 427, 2 h
Leishmania donovani [5] = assay: (§2) GSK_TCAKS: pIC50 Leishmania donovani Imaging: Infected Macrophages. Assay plates (384-well) were prepared by adding 250nL of compound to each well. For single shot assay, the final compound concentration was 5 uM. […] Automated image analysis was performed with a script developed on Acapella High Content Imaging and Analysis Software (PerkinElmer). Output: Percent of infected macrophage cells were reported for each well.; format: functional, organism-based, Homo sapiens; conditions: THP-1
Trypanosoma cruzi [6] = assay: as §1, with “Trypanosoma cruzi” for “H2C9”, “Amastigotes/Cell.” for “H9c2 Host Cardiomyocytes.”, “number” for “Number”, “amastigotes per cell as infection level measurement.” for “H9c2 Host Cardiomyocytes nuclei to determine drug-related cytotoxicity.”; format: functional, organism-based, Rattus norvegicus; conditions: H9c2, 4 h
Leishmania donovani [7] = assay: as §2, with “THP-1 Host” for “Infected”, “THP-1 cell count” for “Percent of infected macrophage cells”; format: functional, organism-based, Homo sapiens
Leishmania donovani [8] = assay: as §2, with “Amastigotes/Macrophages.” for “Infected Macrophages.”, “Average number” for “Percent”, “amastigotes per” for “infected”, “cell” for “cells”; format: functional, organism-based, Homo sapiens; conditions: THP-1
[9] = tested on: Trypanosoma brucei brucei; assay: GSK_TCAKS: pIC50 Trypanosoma brucei viability assay using luminiscence. Assay plates (1536-well) were prepared. T. brucei cultures were harvested and counted in a CASY cell counter. A parasite suspension was prepared at a final concentration of 5 * 10^4 cells/mL in complete HMI9 medium and 6uL was dispensed to all wells containing compounds using a Multidrop Combi dispenser. 6uL of HMI9 media with 0.4% DMSO were dispensed to control columns. Plates were incubated for 24 h at 37C, 5% CO2 then tempered for 10 min at room temperature. ATP content was quantified by adding 4 uL of CellTiter-Glo Reagent (Promega) according to the manufacturer's instructions. Luminescence was measured using a ViewLux.; format: functional, organism-based; conditions: Lister 427, CASY
Trypanosoma cruzi [10] = assay: as §1, with “Trypanosoma cruzi” for “H2C9”, “Infected Cells.” for “H9c2 Host Cardiomyocytes.”, “percentage” for “Number”, “infected cells per well as a second infection marker.” for “H9c2 Host Cardiomyocytes nuclei to determine drug-related cytotoxicity.”; format: functional, organism-based, Rattus norvegicus; conditions: H9c2, 4 h
Leishmania donovani [11] = assay: GSK_TCAKS: pIC50 Leishmania donovani viability assay using fluorescence intensity. Assay plates (1536-well) were prepared by adding 30nL per well of compound. For single shot assay, the final compound concentration was 5uM. […] Briefly, eGFP LdBOB axenic amastigotes were harvested, fixed and counted in a CASY cell counter (Roche-Applied Science). A final concentration of 1.5 * 10^5 cells per well were prepared in amastigote media containing 500 U/mL penicillin/streptomycin (Invitrogen) and 6uL was dispensed to each experimental well using a Multidrop Combi dispenser (Thermo Scientific). 6uL of assay media was dispensed to control columns used as reference for 100% compound response. Following incubation for 72 h at 37C, 5% CO2, 2 uL of resazurin was added to each well at a final concentration of 0.5 mM in phosphate buffered saline (PBS) with IGEPAL (Sigma-Aldrich), 0.05% (v/v).; format: functional, organism-based
[12] = GSK_TCAKS: pIC50 HepG2 human cell line viability assay using luminiscence. […] Seeding density was checked to ensure that new mono-layers were not more than 50% confluent at the time of harvesting. Cell suspension was added to 500 mL of the same medium at a final density of 1.2 * 10^5 cells/mL. This cell suspension was dispensed (25 uL, 3000 cells per well) into 384-well clear-bottom plates using a Multidrop Combi dispenser. Prior to addition of the cell suspension, the screening compounds (250 nL) were pre-dispensed into the plates with an Echo liquid handler. Plates were incubated for 48 h at 37C, 5% CO2. After incubation, plates equilibrated at room temperature for 30 min before proceeding to develop the luminescent signal. The signal developer, CellTiter-Glo Reagent, was allowed to equilibrate at room temperature for 30 min and added to the plates (25uL per well) using a Multidrop Combi dispenser. Plates were left for 10 min at room temperature for stabilization and then read using a ViewLux.; format: toxicity, cell-based

Sequence of Sterol 14-alpha demethylase (Q7Z1V1 whole entry): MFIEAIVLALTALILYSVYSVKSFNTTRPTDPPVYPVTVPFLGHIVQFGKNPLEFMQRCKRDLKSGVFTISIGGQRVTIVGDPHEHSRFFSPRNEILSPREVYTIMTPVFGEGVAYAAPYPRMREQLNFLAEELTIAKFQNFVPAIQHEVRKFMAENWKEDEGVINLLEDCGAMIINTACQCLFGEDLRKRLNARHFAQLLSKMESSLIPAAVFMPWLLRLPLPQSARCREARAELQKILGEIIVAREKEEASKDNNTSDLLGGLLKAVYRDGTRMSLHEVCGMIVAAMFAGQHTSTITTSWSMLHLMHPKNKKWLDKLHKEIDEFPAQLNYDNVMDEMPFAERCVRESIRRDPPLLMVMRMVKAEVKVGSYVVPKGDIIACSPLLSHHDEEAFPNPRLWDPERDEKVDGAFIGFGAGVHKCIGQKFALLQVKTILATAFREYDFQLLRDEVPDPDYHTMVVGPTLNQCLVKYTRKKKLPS

SMILES | IC50 (Trypanosoma cruzi [1]) | IC50 (Trypanosoma cruzi [2]) | IC50 [3] | IC50 [4] | IC50 (Leishmania donovani [5]) | IC50 (Trypanosoma cruzi [6]) | IC50 (Leishmania donovani [7]) | IC50 (Leishmania donovani [8]) | IC50 [9] | IC50 (Trypanosoma cruzi [10]) | IC50 (Leishmania donovani [11]) | IC50 at 48 h [12]
CCc1nn(-c2ncc(F)c(NC(C)C)n2)c(N)c1C1CCCCC1 | 3.55 µM | 1 µM | > 100 µM | 10 µM | 3.16 µM | 1.58 µM | 15.8 µM | 1.58 µM | 15.8 µM | 3.16 µM | 3.16 µM | 31.6 µM
C[C@@H](Oc1cc(-n2cnc3cc(N)ccc32)sc1C(N)=O)c1ccccc1Cl | 1.26 µM | 1 µM | 3.16 µM | 0.251 µM | 31.6 µM | 5.01 µM | 25.1 µM | 20 µM | 0.794 µM | 20 µM | 3.16 µM | 20 µM
O=C(NCc1nnc2n1CCCCC2)c1csc(-c2ccccc2)n1 | 2.51 µM | > 50.1 µM | > 100 µM | 0.316 µM | > 50.1 µM | 2 µM | > 50.1 µM | > 50.1 µM | 0.398 µM | 2 µM | > 50.1 µM | > 100 µM
Cc1nc2c(-c3nc(-c4ccccc4N)n[nH]3)cccn2c1C | 4.47 µM | 5.01 µM | 3.16 µM | 1 µM | 1.58 µM | 1.58 µM | 7.94 µM | 1 µM | 2.51 µM | 2.51 µM | 6.31 µM | 15.8 µM
Cc1nc2c(-c3nc(-c4ccc(N)cc4)n[nH]3)cccn2c1C | 6.31 µM | 10 µM | > 100 µM | 12.6 µM | 2 µM | > 50.1 µM | 12.6 µM | 1.58 µM | 25.1 µM | > 50.1 µM | 3.16 µM | 15.8 µM
OC[C@@H](Nc1nccc(-c2c(-c3ccc(F)cc3)ncn2C2CCNCC2)n1)c1ccccc1 | 31.6 µM | 2 µM | 25.1 µM | 0.398 µM | 31.6 µM | 12.6 µM | 31.6 µM | 31.6 µM | 0.631 µM | 12.6 µM | > 50.1 µM | 100 µM
Cc1ccc2onc(Nc3ccnc(Nc4cccc(S(C)(=O)=O)c4)n3)c2c1 | 3.98 µM | 5.01 µM | 39.8 µM | 6.31 µM | 2 µM | 0.398 µM | 20 µM | 1 µM | 7.94 µM | 0.631 µM | 5.01 µM | 50.1 µM
Cn1nc(-c2ccc(NC(=O)Cc3ccccc3Cl)cc2)c2c(N)ncnc21 | 2 µM | 7.94 µM | 63.1 µM | 0.398 µM | > 50.1 µM | 1 µM | > 50.1 µM | > 50.1 µM | 0.251 µM | 1.26 µM | > 50.1 µM | > 100 µM
Cc1cc(Nc2ccc(C#N)c(Cl)c2C)[nH]n1 | 25.1 µM | > 50.1 µM | 39.8 µM | 0.00794 µM | > 50.1 µM | 20 µM | 20 µM | > 50.1 µM | 0.251 µM | > 50.1 µM | 50.1 µM | > 100 µM
Cc1c(Nc2cc(C3CC3)n[nH]2)ccc(C#N)c1Cl | 2.51 µM | 10 µM | 20 µM | 0.398 µM | 39.8 µM | 15.8 µM | 25.1 µM | 25.1 µM | 0.631 µM | 25.1 µM | 20 µM | 39.8 µM
CCOC(=O)c1cn[nH]c1S(=O)(=O)N1CCC1c1ccccc1 (stereo unspecified) | > 50.1 µM | > 50.1 µM | 50.1 µM | 0.631 µM | > 50.1 µM | > 50.1 µM | > 50.1 µM | > 50.1 µM | 0.794 µM | > 50.1 µM | > 50.1 µM | > 100 µM
COc1cc(-c2noc(CC#N)n2)ccc1OC(F)F | 39.8 µM | 31.6 µM | 100 µM | 0.631 µM | > 50.1 µM | 25.1 µM | 50.1 µM | > 50.1 µM | 0.631 µM | 39.8 µM | > 50.1 µM | > 100 µM
CS(=O)(=O)c1ccc(Nc2nccc(Nc3n[nH]c4ccc(F)cc34)n2)c(F)c1 | 7.94 µM | 15.8 µM | 39.8 µM | 0.501 µM | 12.6 µM | 3.98 µM | 15.8 µM | 10 µM | 0.794 µM | 31.6 µM | 12.6 µM | 79.4 µM
Cc1nc2c(-c3ncn[nH]3)cc(NC(=O)Cc3ccccc3)cn2c1C | 1 µM | 6.31 µM | 10 µM | 3.16 µM | 0.398 µM | 0.794 µM | 7.94 µM | 0.316 µM | 10 µM | 1 µM | 0.794 µM | 15.8 µM
Cc1[nH]nc(Nc2ccnc3[nH]ccc23)c1C | 3.98 µM | > 50.1 µM | 79.4 µM | 0.126 µM | > 50.1 µM | > 50.1 µM | > 50.1 µM | > 50.1 µM | 0.251 µM | > 50.1 µM | > 50.1 µM | > 100 µM
COc1cc(Nc2nccc(Nc3onc(C)c3C)n2)cc(S(=O)(=O)C2CCOCC2)c1 | 6.31 µM | 10 µM | 7.94 µM | 0.501 µM | > 50.1 µM | 12.6 µM | 39.8 µM | 5.01 µM | 0.501 µM | 25.1 µM | 39.8 µM | 31.6 µM
O=C(NCCc1ccn(-c2ccccc2)n1)C1CCCCC1 | 1.26 µM | > 50.1 µM | 100 µM | 0.251 µM | > 50.1 µM | 1 µM | > 50.1 µM | > 50.1 µM | 0.316 µM | 1 µM | > 50.1 µM | > 100 µM
CC(C)(C)C(=O)Nc1cc(C2CC2)nn1-c1nc2c(c(=O)[nH]1)CCCC2 | 0.501 µM | 2 µM | > 100 µM | 0.158 µM | 5.01 µM | 0.126 µM | 7.94 µM | 2 µM | 0.2 µM | 0.501 µM | 0.0794 µM | > 100 µM
